Assay [1] has as its target T1, hPAP (Homo sapiens, UniProt P15309).
T1 sequence (P15309 33-386): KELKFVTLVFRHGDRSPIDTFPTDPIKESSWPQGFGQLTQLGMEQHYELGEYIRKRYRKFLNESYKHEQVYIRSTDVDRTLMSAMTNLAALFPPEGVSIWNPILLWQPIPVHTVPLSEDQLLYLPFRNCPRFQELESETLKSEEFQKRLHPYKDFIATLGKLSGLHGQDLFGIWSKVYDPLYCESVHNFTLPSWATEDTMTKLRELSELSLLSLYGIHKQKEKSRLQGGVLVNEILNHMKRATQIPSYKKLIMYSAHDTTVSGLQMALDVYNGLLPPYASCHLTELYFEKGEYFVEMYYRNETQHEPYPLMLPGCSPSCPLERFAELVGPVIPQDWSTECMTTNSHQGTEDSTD
In words: Fluorogenic. It counts as biochemical. The note with it: read-out: IC50 hPAP, fluorogenic assay; positive control, DiFMUP substrate.

The test system of assay [2] is transmembrane PAP. In words: Cell-based calcium mobilization assay of AMP hydrolysis by transmembrane PAP. The note with it: HEK293 cells expressing hA2B + Gαq-s5 + transmembrane PAP, 1 mM AMP. A general note: A change in cytosolic calcium serves as a functional read-out for many receptors and channels.
In assay [3] the test system is PAP. As to conditions: cited from earlier work.
In assay [4] the target is T2, mPAP (Mus musculus, UniProt Q8CE08).
T2 sequence (Q8CE08 32-381): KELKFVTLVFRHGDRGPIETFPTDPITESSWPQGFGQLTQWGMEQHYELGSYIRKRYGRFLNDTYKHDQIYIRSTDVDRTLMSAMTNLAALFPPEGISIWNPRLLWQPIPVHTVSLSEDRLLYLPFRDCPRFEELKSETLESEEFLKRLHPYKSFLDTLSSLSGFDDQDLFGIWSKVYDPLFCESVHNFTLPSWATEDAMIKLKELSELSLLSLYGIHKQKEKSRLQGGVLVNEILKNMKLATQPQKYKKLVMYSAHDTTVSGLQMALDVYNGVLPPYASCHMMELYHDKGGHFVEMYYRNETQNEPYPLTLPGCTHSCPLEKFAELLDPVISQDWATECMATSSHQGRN
Put plainly: Fluorogenic. It counts as biochemical. As to conditions: read-out: IC50 mPAP, fluorogenic assay; positive control, DiFMUP substrate.

Assay [5] deals with T3, A2B adenosine receptor (Homo sapiens, UniProt P29275).
T3 sequence (P29275 1-332): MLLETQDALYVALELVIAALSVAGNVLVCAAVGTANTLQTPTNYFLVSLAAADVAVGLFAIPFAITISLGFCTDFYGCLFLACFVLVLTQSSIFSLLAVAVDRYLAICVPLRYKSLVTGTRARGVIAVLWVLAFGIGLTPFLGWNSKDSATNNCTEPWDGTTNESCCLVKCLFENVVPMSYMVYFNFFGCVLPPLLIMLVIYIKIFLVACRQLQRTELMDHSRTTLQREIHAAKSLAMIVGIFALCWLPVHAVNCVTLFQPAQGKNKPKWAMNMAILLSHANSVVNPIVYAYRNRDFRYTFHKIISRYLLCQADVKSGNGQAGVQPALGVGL
In words: A2B receptor activation by adenosine in calcium mobilization assay. The assay is classed as cell-based. As to conditions: BABPA 5 μM, pCPT-cAMP 100 μM; 1 mM adenosine as ligand.

On to `O=P(O)(O)C(NCc1ccccc1)c1ccccc1` (stereo not drawn) [BABPA, α-Benzylaminobenzylphosphonic acid], for which the IC50 stood at 4.97 nM in assay [1] and 20.6 nM in assay [4]. Besides, the “Inhibition of hydrolysis of AMP to adenosine by transmembrane PAP (in words)” value in assay [2] is “dose-dependently inhibited”. In addition, in assay [3], the “Inhibition of PAP (potency in words)” value was “low nanomolar range”. Besides, in assay [5], the “Block of A2B receptor activation by adenosine (in words)” value is given as “did not block”.

In general, IC50 refers to the concentration that inhibits the measured activity by half.
